# Legend:
# [1] = biological target: Glutamate receptor ionotropic, NMDA 1 (Rattus norvegicus, UniProt P35439); assay: Inhibition of [3H]glycine to glycine binding site, associated with the N-methyl-D-aspartate glutamate receptor 1 in crude synaptic membranes prepared from adult rat cerebral cortex.; type: cell membranes
# Mus musculus [2] = assay: Effective dose to inhibit convulsions induced by NMDA in mice, when administered intravenous route.; type: functional
# Mus musculus [3] = assay: Effective dose to inhibit convulsions induced by NMDA in mice, when administered peroral route.; type: functional; conditions: po
# [4] = biological target: Glutamate receptor ionotropic, NMDA 1 (Rattus norvegicus) (UniProt P35439); assay: Antagonistic activity by using [3H]TCP radioligand (non competitive inhibition) at strychnine-insensitive N-methyl-D-aspartate glutamate receptor 1
Ki [1],Compound,other results
200 nM,O=C(/C=C/c1c(C(=O)O)[nH]c2cc(Cl)cc(Cl)c12)Nc1ccc(Nc2ccccc2)cc1,
126 nM,O=C(/C=C/c1c(C(=O)O)[nH]c2cc(Cl)cc(Cl)c12)Nc1ccc(Cl)c([N+](=O)[O-])c1,
25.1 nM,O=C(/C=C/c1c(C(=O)O)[nH]c2cc(Cl)cc(Cl)c12)Nc1ccccc1[N+](=O)[O-],
63.1 nM,O=C(/C=C/c1c(C(=O)O)[nH]c2cc(Cl)cc(Cl)c12)Nc1ccc(C(=O)O)cc1,
501 nM,CC(C)(C)OC(=O)/C=C/c1c(C(=O)O)[nH]c2cc(Cl)cc(Cl)c12,
5.01 nM,Nc1cccc(NC(=O)/C=C/c2c(C(=O)O)[nH]c3cc(Cl)cc(Cl)c23)c1,
2000 nM,O=C(O)c1cc2c(Cl)cc(Cl)cc2[nH]1,
20 nM,O=C(O)/C=C/c1c(C(=O)[O-])[nH]c2cc(Cl)cc(Cl)c12.[Na+],ED50 (Mus musculus [2]): 17.2 mg/kg; ED50 (Mus musculus [3]): > 200 mg/kg
10 nM,O=C(/C=C/c1c(C(=O)O)[nH]c2cc(Cl)cc(Cl)c12)Nc1cccc([N+](=O)[O-])c1O,
126 nM,O=C(/C=C/c1c(C(=O)[O-])[nH]c2cc(Cl)cc(Cl)c12)NCc1ccccc1.[Na+],ED50 (Mus musculus [2]): > 30 mg/kg; ED50 (Mus musculus [3]): > 200 mg/kg
6.31 nM,O=C(Nc1ccccc1)N[C@H]1C[C@H](C(=O)O)Nc2cc(Cl)cc(Cl)c21,ED50 (Mus musculus [2]): 0.21 mg/kg
31.6 nM,O=C(/C=C/c1c(C(=O)O)[nH]c2cc(Cl)cc(Cl)c12)Nc1ccc(F)cc1[N+](=O)[O-],
2 nM,O=C(/C=C/c1c(C(=O)O)[nH]c2cc(Cl)cc(Cl)c12)Nc1ccc(O)cc1,
1.58 nM,NC(=O)Nc1ccc(NC(=O)/C=C/c2c(C(=O)O)[nH]c3cc(Cl)cc(Cl)c23)cc1,
20 nM,COc1ccc(NC(=O)/C=C/c2c(C(=O)O)[nH]c3cc(Cl)cc(Cl)c23)c(C)c1,
7.94 nM,O=c1[nH]c2cc(Cl)c(Cl)c([N+](=O)[O-])c2[nH]c1=O [LICOSTINEL],ED50 (Mus musculus [2]): 0.21 mg/kg
6.31 nM,O=C(/C=C/c1c(C(=O)O)[nH]c2cc(Cl)cc(Cl)c12)Nc1ccc(F)cc1,
794 nM,O=C(O)c1[nH]c2cc(Cl)cc(Cl)c2c1/C=C/S(=O)(=O)Nc1ccccc1,
3.16 nM,Nc1ccccc1NC(=O)/C=C/c1c(C(=O)O)[nH]c2cc(Cl)cc(Cl)c12,
1 nM,O=c1[nH]c2cc(Cl)ccc2c(O)c1-c1cccc(Oc2ccccc2)c1,ED50 (Mus musculus [2]): 0.78 mg/kg
3.98 nM,O=C(/C=C/c1c(C(=O)O)[nH]c2cc(Cl)cc(Cl)c12)Nc1cccc(O)c1,
158 nM,O=C(/C=C/c1c(C(=O)O)[nH]c2cc(Cl)cc(Cl)c12)Nc1ccc(C(F)(F)F)cc1,
25.1 nM,O=C(CCc1c(C(=O)[O-])[nH]c2cc(Cl)cc(Cl)c12)Nc1ccccc1.[Na+],ED50 (Mus musculus [2]): 3.7 mg/kg
100 nM,O=C(/C=C/c1c(C(=O)O)[nH]c2cc(Cl)cc(Cl)c12)Nc1ccc([N+](=O)[O-])cc1,
50.1 nM,CC(C)c1ccccc1NC(=O)/C=C/c1c(C(=O)O)[nH]c2cc(Cl)cc(Cl)c12,
1.26 nM,Nc1ccc(NC(=O)/C=C/c2c(C(=O)O)[nH]c3cc(Cl)cc(Cl)c23)cc1,
3.16 nM,O=C(/C=C/c1c(C(=O)[O-])[nH]c2cc(Cl)cc(Cl)c12)Nc1ccccc1.[Na+] [GAVESTINEL SODIUM],pA2 [4]: 8.1; ED50 (Mus musculus [2]): 0.06 mg/kg; ED50 (Mus musculus [3]): 6 mg/kg
100 nM,CCN(CC)c1ccc(NC(=O)/C=C/c2c(C(=O)O)[nH]c3cc(Cl)cc(Cl)c23)cc1,
5.01 nM,O=C(/C=C/c1c(C(=O)O)[nH]c2cc(Cl)cc(Cl)c12)Nc1cccc([N+](=O)[O-])c1F,
12.6 nM,CN(C)c1ccc(NC(=O)/C=C/c2c(C(=O)O)[nH]c3cc(Cl)cc(Cl)c23)cc1,

Compound,Ki [1],other results
O=C(O)CCc1c(C(=O)[O-])[nH]c2cc(Cl)cc(Cl)c12.[Na+],39.8 nM,ED50 (Mus musculus [2]): > 10 mg/kg

# Source: ChEMBL document CHEMBL1129966, “Substituted indole-2-carboxylates as in vivo potent antagonists acting as the strychnine-insensitive glycine binding site” (J Med Chem, 1997)
